Target: T1, human TLR7 (Homo sapiens, UniProt Q9NYK1)
T1 construct: host or cells: HEK-Blue cells
T1 sequence (Q9NYK1 27-1049): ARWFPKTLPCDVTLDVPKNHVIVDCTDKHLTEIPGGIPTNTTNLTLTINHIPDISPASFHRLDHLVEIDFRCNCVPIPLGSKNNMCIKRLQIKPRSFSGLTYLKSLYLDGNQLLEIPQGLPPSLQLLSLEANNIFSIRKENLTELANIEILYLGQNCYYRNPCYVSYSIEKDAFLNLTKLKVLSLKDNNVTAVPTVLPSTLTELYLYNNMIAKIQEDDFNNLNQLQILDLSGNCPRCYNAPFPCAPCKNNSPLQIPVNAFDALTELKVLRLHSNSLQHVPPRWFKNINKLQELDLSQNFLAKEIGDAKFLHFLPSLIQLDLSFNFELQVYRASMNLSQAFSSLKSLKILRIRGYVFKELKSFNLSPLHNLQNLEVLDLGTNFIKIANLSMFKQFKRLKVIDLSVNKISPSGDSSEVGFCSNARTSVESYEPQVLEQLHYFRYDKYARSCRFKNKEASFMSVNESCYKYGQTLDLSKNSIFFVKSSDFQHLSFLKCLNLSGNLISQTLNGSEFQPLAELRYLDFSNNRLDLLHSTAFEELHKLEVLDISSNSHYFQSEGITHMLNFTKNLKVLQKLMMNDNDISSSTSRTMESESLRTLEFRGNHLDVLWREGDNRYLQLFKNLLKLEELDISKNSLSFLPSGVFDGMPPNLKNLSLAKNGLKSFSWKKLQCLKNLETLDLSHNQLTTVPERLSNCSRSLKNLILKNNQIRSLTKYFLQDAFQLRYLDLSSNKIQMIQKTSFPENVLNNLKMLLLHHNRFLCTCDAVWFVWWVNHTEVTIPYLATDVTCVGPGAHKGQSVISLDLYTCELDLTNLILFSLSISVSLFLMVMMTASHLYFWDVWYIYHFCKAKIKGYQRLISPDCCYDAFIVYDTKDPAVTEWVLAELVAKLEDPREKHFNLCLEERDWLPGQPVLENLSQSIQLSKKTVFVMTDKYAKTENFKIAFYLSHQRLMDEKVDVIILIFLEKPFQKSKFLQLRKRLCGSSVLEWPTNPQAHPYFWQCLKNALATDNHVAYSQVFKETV
Assay: TLR7 inhibition reporter assay (HEK-Blue SEAP)
Type: cell-based
Conditions: HEK-Blue cells overexpressing human TLR7, gardiquimod 7.5 μM, 22 hour incubation
Procedure, shortened: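 In this cell reporter format, test compounds at 0.05 nM-50 μM final incubate 22 h with seeded cells (TLR7 15000, TLR8 20,000 per well). SEAP read-out by HEK-Blue Detection medium yields % inhibition relative to agonist/DMSO and known-inhibitor wells.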

## COc1cc(-c2cc3[nH]c(=O)n(C4CCC(N5CCC(F)(F)C5)CC4)c3cc2C(C)C)cn2ncnc12 (single isomer, unassigned) [Example 294, 1-(4-(3,3-difluoropyrrolidin-1-yl)cyclohexyl)-6-isopropyl-5-(8-methoxy-[1,2,4]triazolo[1,5-a]pyridin-6-yl)-1,3-dihydro-2H-benzo[d]imidazol-2-one]
  IC50: 1.2 nM

## Cc1cc2c(cc1-c1cc(C)c3ncnn3c1)[nH]c(=O)n2[C@@H]1CCCNC1 [1 ED, (R)-6-methyl-5-(8-methyl-[1,2,4]triazolo[1,5-a]pyridin-6-yl)-1-(piperidin-3-yl)-1,3-dihydro-2H-benzo[d]imidazol-2-one]
  IC50: 18.1 nM

## COc1cc(-c2cc3[nH]c(=O)n(C4CCC(N5C6CCC5COC6)CC4)c3cc2C(C)C)cn2ncnc12 (single isomer, unassigned) [Example 253, 1-(4-(3-oxa-8-azabicyclo[3.2.1]octan-8-yl)cyclohexyl)-6-isopropyl-5-(8-methoxy-[1,2,4]triazolo[1,5-a]pyridin-6-yl)-1,3-dihydro-2H-benzo[d]imidazol-2-one]
  IC50: 4.75 nM

## COC[C@@H]1CCN(C2CCC(n3c(=O)[nH]c4cc(-c5cc(OC)c6ncnn6c5)c(C(C)C)cc43)CC2)C1 (single isomer, unassigned) [Example 290]
  IC50: 1.38 nM

## Cc1cc2c(cc1-c1cc(C)c3ncnn3c1)[nH]c(=O)n2[C@H]1CC[C@@H](N)CC1 [1 EE]
  IC50: 19.3 nM

## COc1cc(-c2cc3[nH]c(=O)n(C4CCC(N5CC(F)(F)C5)CC4)c3cc2C(C)C)cn2ncnc12 (single isomer, unassigned) [Example 297]
  IC50: 37.1 nM

## COc1cc(-c2cc3[nH]c(=O)n([C@H]4CC[C@@H](N)CC4)c3cc2C)cn2ncnc12 [1 EG, 1-((1s,4s)-4-aminocyclohexyl)-5-(8-methoxy-[1,2,4]triazolo[1,5-a]pyridin-6-yl)-6-methyl-1,3-dihydro-2H-benzo[d]imidazol-2-one]
  IC50: 53.2 nM
